Assays:
SMARCA4 = molecular target: T1, SMARCA4 (Homo sapiens, UniProt P51532); assay: Cellular degradation assay, SMARCA4 (Table 1); format: cell-based
T1 construct: endogenous in cells

SMARCA2 = molecular target: T2, SMARCA2 (Homo sapiens, UniProt P51531); assay: SMARCA2 Cellular Degradation Assay (Western blot analysis on Jess platform); format: cell-based; details: for DC50 / Dmax: cellular degradation; for Fold Selectivity SMARCA4/2: ratio DC50 SMARCA4 / DC50 SMARCA2
T2 construct: endogenous in cells
In short: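 SMARCA2 remaining is given as percent of vehicle control, using actin-normalized, background-corrected electropherogram areas. Measurement was by Jess capillary immunoassay (anti-SMARCA2 with anti-β-actin) on 5 μg protein from RIPA/SDS lysates of tumor-derived cells.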

T2 sequence (P51531 whole entry, species assumed): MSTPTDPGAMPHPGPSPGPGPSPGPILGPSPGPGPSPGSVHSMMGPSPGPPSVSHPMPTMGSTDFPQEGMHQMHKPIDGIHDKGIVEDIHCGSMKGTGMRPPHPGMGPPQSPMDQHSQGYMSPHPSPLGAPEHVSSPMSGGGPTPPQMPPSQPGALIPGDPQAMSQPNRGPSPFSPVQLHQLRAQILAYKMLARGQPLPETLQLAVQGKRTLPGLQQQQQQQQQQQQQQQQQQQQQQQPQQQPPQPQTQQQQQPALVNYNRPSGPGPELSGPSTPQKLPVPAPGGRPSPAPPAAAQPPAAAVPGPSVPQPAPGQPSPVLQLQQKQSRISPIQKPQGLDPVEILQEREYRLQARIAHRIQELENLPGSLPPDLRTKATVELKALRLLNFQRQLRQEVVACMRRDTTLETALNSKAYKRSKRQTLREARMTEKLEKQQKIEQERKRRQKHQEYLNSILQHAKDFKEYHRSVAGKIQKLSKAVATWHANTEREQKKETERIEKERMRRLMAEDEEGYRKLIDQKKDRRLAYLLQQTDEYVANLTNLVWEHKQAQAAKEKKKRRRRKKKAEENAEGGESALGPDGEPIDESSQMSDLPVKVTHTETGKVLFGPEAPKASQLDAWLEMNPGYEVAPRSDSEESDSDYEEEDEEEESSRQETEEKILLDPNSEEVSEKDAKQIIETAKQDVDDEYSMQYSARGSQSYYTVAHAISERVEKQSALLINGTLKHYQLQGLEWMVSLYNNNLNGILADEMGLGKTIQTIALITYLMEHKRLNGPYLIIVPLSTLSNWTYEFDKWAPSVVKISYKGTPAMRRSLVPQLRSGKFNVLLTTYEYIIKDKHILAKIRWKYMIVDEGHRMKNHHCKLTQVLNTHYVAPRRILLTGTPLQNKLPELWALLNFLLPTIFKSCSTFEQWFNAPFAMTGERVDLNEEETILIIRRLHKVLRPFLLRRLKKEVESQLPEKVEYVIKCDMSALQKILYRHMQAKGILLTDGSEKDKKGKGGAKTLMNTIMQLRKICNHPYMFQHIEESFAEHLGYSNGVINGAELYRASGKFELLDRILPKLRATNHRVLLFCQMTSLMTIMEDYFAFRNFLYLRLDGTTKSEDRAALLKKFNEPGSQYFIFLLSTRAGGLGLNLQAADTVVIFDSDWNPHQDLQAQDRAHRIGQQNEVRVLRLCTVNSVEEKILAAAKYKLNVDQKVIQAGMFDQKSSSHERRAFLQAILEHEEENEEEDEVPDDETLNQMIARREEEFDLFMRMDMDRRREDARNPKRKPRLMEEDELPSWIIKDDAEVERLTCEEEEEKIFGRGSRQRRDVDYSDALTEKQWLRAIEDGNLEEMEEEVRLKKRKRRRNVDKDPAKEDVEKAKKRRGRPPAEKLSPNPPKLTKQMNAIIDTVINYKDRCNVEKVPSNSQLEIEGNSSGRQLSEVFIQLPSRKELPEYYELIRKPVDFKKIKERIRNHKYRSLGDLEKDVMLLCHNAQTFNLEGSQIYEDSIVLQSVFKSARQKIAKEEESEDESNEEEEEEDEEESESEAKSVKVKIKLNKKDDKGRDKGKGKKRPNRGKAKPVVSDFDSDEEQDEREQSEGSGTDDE
T1 sequence (P51532 whole entry, species assumed): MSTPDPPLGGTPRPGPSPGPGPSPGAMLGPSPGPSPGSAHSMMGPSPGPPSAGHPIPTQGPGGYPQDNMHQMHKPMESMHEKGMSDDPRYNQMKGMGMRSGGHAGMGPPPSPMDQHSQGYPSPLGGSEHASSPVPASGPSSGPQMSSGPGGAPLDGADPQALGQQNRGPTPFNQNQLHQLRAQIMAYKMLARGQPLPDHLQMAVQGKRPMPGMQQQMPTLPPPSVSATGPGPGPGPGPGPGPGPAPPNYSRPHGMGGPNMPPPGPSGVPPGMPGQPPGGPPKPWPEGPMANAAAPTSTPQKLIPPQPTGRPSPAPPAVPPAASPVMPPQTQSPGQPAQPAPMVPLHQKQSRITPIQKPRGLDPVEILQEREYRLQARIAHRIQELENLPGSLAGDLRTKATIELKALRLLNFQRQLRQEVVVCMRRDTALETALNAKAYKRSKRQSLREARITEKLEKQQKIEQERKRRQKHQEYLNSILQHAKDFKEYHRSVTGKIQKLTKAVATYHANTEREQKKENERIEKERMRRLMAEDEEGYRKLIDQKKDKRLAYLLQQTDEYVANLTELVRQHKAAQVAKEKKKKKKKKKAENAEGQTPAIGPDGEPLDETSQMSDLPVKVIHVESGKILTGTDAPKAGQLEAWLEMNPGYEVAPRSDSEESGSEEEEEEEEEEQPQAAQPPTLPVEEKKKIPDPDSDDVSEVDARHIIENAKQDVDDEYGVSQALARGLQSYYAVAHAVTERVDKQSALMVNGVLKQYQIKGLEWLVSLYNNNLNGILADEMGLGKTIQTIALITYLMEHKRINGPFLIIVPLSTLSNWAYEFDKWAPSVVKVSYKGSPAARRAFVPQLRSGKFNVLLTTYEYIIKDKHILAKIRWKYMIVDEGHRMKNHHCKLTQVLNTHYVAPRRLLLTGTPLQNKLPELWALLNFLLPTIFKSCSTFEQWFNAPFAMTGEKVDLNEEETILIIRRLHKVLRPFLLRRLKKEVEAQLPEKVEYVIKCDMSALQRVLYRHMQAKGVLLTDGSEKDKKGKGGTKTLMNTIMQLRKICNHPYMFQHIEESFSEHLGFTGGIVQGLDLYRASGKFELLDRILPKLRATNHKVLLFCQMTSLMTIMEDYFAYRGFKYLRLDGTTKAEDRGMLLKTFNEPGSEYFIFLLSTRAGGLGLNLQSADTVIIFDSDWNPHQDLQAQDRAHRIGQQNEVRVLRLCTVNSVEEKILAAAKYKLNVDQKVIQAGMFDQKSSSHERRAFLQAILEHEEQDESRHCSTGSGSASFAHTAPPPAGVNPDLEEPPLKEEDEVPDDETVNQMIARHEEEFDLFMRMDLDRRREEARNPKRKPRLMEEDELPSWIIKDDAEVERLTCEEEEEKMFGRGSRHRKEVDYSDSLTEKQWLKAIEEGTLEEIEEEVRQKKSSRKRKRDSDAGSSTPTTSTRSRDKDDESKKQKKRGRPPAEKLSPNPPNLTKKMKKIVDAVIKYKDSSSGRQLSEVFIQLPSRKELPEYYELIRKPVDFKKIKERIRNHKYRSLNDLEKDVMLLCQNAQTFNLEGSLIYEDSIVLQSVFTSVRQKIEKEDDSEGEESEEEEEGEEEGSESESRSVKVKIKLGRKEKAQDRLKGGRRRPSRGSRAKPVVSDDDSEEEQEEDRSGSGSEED

DC50 (SMARCA4) [nM]	Dmax (SMARCA4) [%]	DC50 (SMARCA2) [nM]	Dmax (SMARCA2) [%]	Fold Selectivity SMARCA4/2 (SMARCA2)	SMILES
8.12	82.6	1.56	91.8	5	O=C1CC[C@H](n2ccc3cc(N4CCC(CN5CCC(NC(=O)C6(c7ccccc7)CCN(c7cnnc(-c8ccccc8O)c7)CC6)CC5)CC4)ccc3c2=O)C(=O)N1 [Example 157, N-{1-[(1-{2-[(3S)-2,6-dioxopiperidin-3-yl]-1-oxo-1,2-dihydroisoquinolin-6-yl}piperidin-4-yl)methyl]piperidin-4-yl}-1-[6-(2-hydroxyphenyl)pyridazin-4-yl]-4-phenylpiperidine-4-carboxamide]
	32.4	31.9	70.8	313	O=C1CC[C@H](c2ccc(N3CCC(CN4CCC(NC(=O)C5(C6CCOCC6)CCN(c6cnnc(-c7ccccc7O)c6)CC5)CC45CCC5)CC3)cc2)C(=O)N1 (stereo partly drawn) [Example 161, N-{5-[(1-{4-[(3R)-2,6-dioxopiperidin-3-yl]phenyl}piperidin-4-yl)methyl]-5-azaspiro[3.5]nonan-8-yl}-1-[6-(2-hydroxyphenyl)pyridazin-4-yl]-4-(oxan-4-yl)piperidine-4-carboxamide]
25.9	63.9	2.62	84.7	10	Cc1ccn(C2(C(=O)NC3CCN(CC4CCN(c5ccc([C@H]6CCC(=O)NC6=O)cc5)CC4)C4(CCC4)C3)CCN(c3cnnc(-c4ccccc4O)c3)CC2)n1 (stereo partly drawn) [Example 162, N-{5-[(1-{4-[(3R)-2,6-dioxopiperidin-3-yl]phenyl}piperidin-4-yl)methyl]-5-azaspiro[3.5]nonan-8-yl}-1-[6-(2-hydroxyphenyl)pyridazin-4-yl]-4-(3-methyl-1H-pyrazol-1-yl)piperidine-4-carboxamide]
3.77	86.6	2.16	85	2	O=C1CC[C@H](c2ccc(N3CCC(C(=O)N4CCC5(CC4)CN(CC4(c6ccccc6)CCN(c6cnnc(-c7ccccc7O)c6)CC4)C5)CC3)cc2)C(=O)N1 [Example 164, (3R)-3-(4-{4-[2-({1-[6-(2-hydroxyphenyl)pyridazin-4-yl]-4-phenylpiperidin-4-yl}methyl)-2,7-diazaspiro[3.5]nonane-7-carbonyl]piperidin-1-yl}phenyl)piperidine-2,6-dione]
104	62	6.28	86.6	17	COc1cccc(C2(C(=O)NC3CCN(CC4CCN(c5ccc([C@H]6CCC(=O)NC6=O)cc5)CC4)C4(CCC4)C3)CCN(c3cnnc(-c4ccccc4O)c3)CC2)c1 (stereo partly drawn) [Example 169, N-{5-[(1-{4-[(3R)-2,6-dioxopiperidin-3-yl]phenyl}piperidin-4-yl)methyl]-5-azaspiro[3.5]nonan-8-yl}-1-[6-(2-hydroxyphenyl)pyridazin-4-yl]-4-(3-methoxyphenyl)piperidine-4-carboxamide]
	46.2	13.3	77.2	754	O=C1CC[C@H](c2ccc(N3CCC(CNC4CCN(C(=O)C5(Oc6ccccc6)CCN(c6cnnc(-c7ccccc7O)c6)CC5)CC4)CC3)cc2)C(=O)N1 [Example 180, (3R)-3-[4-(4-{[(1-{1-[6-(2-hydroxyphenyl)pyridazin-4-yl]-4-phenoxypiperidine-4-carbonyl}piperidin-4-yl)amino]methyl}piperidin-1-yl)phenyl]piperidine-2,6-dione]
62.6	57.1	2.76	82.5	23	O=C1CC[C@H](c2ccc(N3CCC(CN4CCC(NC(=O)C5(c6ccccn6)CCN(c6cnnc(-c7ccccc7O)c6)CC5)CC45CCC5)CC3)cc2)C(=O)N1 (stereo partly drawn) [Example 182, N-{5-[(1-{4-[(3R)-2,6-dioxopiperidin-3-yl]phenyl}piperidin-4-yl)methyl]-5-azaspiro[3.5]nonan-8-yl}-1-[6-(2-hydroxyphenyl)pyridazin-4-yl]-4-(pyridin-2-yl)piperidine-4-carboxamide]
249	56.2	6.43	80.7	39	CC1(C)CC(NC(=O)C2(c3ccccc3)CCN(c3cnnc(-c4ccccc4O)c3)CC2)CCN1CC1CCN(c2ccc([C@H]3CCC(=O)NC3=O)cc2)CC1 (stereo partly drawn) [Example 183, N-{1-[(1-{4-[(3R)-2,6-dioxopiperidin-3-yl]phenyl}piperidin-4-yl)methyl]-2,2-dimethylpiperidin-4-yl}-1-[6-(2-hydroxyphenyl)pyridazin-4-yl]-4-phenylpiperidine-4-carboxamide]
37.6	80.7	4.88	91.3	8	CCN(C(=O)C1(c2ccccc2)CCN(c2cnnc(-c3ccccc3O)c2)CC1)C1CCN(CC2CCN(c3ccc([C@H]4CCC(=O)NC4=O)cc3)CC2)CC1 [Example 184, N-{1-[(1-{4-[(3R)-2,6-dioxopiperidin-3-yl]phenyl}piperidin-4-yl)methyl]piperidin-4-yl}-N-ethyl-1-[6-(2-hydroxyphenyl)pyridazin-4-yl]-4-phenylpiperidine-4-carboxamide]
34.5	73.1	1.3	94.4	27	CCN(C(=O)C1(c2ccccc2)CCN(c2cnnc(-c3ccccc3O)c2)CC1)C1CCN(CCC2CCN(c3ccc([C@H]4CCC(=O)NC4=O)cc3)CC2)CC1 [Example 187, N-{1-[2-(1-{4-[(3R)-2,6-dioxopiperidin-3-yl]phenyl}piperidin-4-yl)ethyl]piperidin-4-yl}-n-ethyl-1-[6-(2-hydroxyphenyl)pyridazin-4-yl]-4-phenylpiperidine-4-carboxamide]
15.6	81.8	1.7	93	9	O=C1CC[C@H](c2ccc(N3CCC(CN4CCC5(CC4)CN(C(=O)C4(c6ccccc6)CCN(c6cnnc(-c7ccccc7O)c6)CC4)C5)CC3)nc2)C(=O)N1 [Example 189, (3R)-3-(6-{4-[(2-{1-[6-(2-hydroxyphenyl)pyridazin-4-yl]-4-phenylpiperidine-4-carbonyl}-2,7-diazaspiro[3.5]nonan-7-yl)methyl]piperidin-1-yl}pyridin-3-yl)piperidine-2,6-dione]
81.9	58.8	2.72	89.2	30	O=C1CC[C@H](c2ccc(N3CCC(CN4CC[C@@H](NC(=O)C5(c6ccccc6)CCN(c6cnnc(-c7ccccc7O)c6)CC5)CC45CCC5)CC3)cc2)C(=O)N1 [Example 190, N-[(8R)-5-[(1-{4-[(3R)-2,6-dioxopiperidin-3-yl]phenyl}piperidin-4-yl)methyl]-5-azaspiro[3.5]nonan-8-yl]-1-[6-(2-hydroxyphenyl)pyridazin-4-yl]-4-phenylpiperidine-4-carboxamide]
128	46.4	4.58	88.8	28	CN(C(=O)C1(c2ccccc2)CCN(c2cnnc(-c3ccccc3O)c2)CC1)C1CCN(CCC2CCN(c3ccc([C@H]4CCC(=O)NC4=O)cc3)CC2)CC1 [Example 192, N-{1-[2-(1-{4-[(3R)-2,6-dioxopiperidin-3-yl]phenyl}piperidin-4-yl)ethyl]piperidin-4-yl}-1-[6-(2-hydroxyphenyl)pyridazin-4-yl]-N-methyl-4-phenylpiperidine-4-carboxamide]

From patent US20250051344A1, “BIFUNCTIONAL SELECTIVE DEGRADERS OF SMARCA2 AND THERAPEUTIC USES THEREOF” (Nurix Therapeutics, Inc., priority 2023, published 2025)
